From patent US20050197372A1 (priority 2002, published 2005)

Tests used:
[1] = test system: human platelets in whole blood; assay: Whole blood impedance platelet aggregation induced by collagen; type: cell-based; conditions: for Whole blood impedance platelet aggregation induced by 1 μg/ml collagen: 60 minutes at 37° C., baseline 29 ± 7
Experimental: (§1) None of them received aspirin or any other anti-platelet agents. All subjects underwent blood sampling after at least 30 minutes of rest and 2 or more hours of fasting. Blood was drawn between 8 and 10 a.m. in order to avoid any diurnal influence and sampled from an antecubital vein using a 21-gauge butterfly needle containing 3.8% sodium citrate (1:9 volume) after having discarded the first 1.5 ml of free running blood. Eleven Vacutainer tubes (4.5 ml) were collected for a total of 49 ml of whole blood-citrate mixture from each study participant. One tube was kept as an internal control and was incubated with buffer solution. […] To avoid possible observer bias, blood samples were coded and blinded. Sampling procedures, and platelet studies were performed by individuals unaware of the protocol.
The methods are described in detail in Abbate R, et al., Amer J Clin Pathol 1986; 86: 91-96. Briefly, the whole blood citrate mixture was diluted 1:1 with 0.5 ml TBS, then swirled gently. The cuvette with the stirring bar was placed in the incubation well and allowed to warm to 37° C. for 5 minutes. Then the sample was transferred to the assay well. An electrode was placed in the sample cuvette. Platelet aggregation was stimulated with 1 μg/ml collagen. Platelet aggregation studies were performed using a Chrono-Log Whole Blood Aggregometer using Aggrolink” software. Platelet aggregability was expressed as the change in electrical impedance and is expressed in ohms.

[2] = test system: shear-induced platelet aggregation; assay: PFA-100 closure time, epinephrine/collagen cartridge; type: cell-based, human; conditions: for PFA-100 closure time with the epinephrine/collagen cartridge: baseline 201 ± 22
Experimental: as §1
The platelet function analyzer (PFA-100′, Dade Behring, Deerfield, Ill.) is a device that simulates changes in primary hemostasis after injury to a small vessel under flow conditions. Kundu S K, et al., Semin Thromb Hemost 1995; 21(Suppl 2): 106-112. The time required to obtain occlusion of the aperture was digitally recorded as a measure of shear-induced platelet aggregation. Closure time determinations were performed in duplicate.

[3] = test system: platelet/endothelial cell adhesion molecule-1 (PECAM-1, CD31); assay: Whole blood flow cytometry, PECAM-1 expression; type: cell-based, human; conditions: for Expression of platelet/endothelial cell adhesion molecule-1 (PECAM-1, CD31): baseline 69.2 ± 10.3
Experimental: as §1
(§2) The expression of platelet receptors was determined by using the following monoclonal antibodies: CD31 (platelet endothelial cell adhesion molecule (PECAM-1), CD41 (glycoprotein [GP] IIb/IIIa, (IIb (3), CD42b (GP Ib), CD 51/CD61 ((v (3, or vitronectin receptor), CD62p (P-selectin), CD107a (lysosome associated membrane protein-1; LAMP-1), CD 107b (LAMP-2), CD151 (platelet/endothelial tetraspan antigen-3; PETA-3), and PAC-1 for fibrinogen-platelet (PharMingen, San Diego, Calif.). Platelet-leukocyte interactions were assessed by using dual antibodies for a pan-platelet marker (CD 151), together with CD14, a monocyte/macrophage marker. The blood-citrate mixture (50 μl) was diluted with 450 μl Tris buffered saline (TBS) (10 mmol/L Tris, 0.15 mol/L sodium chloride) and mixed by gently inverting an Eppendorf tube 2 times. Five μl of the corresponding antibodies were then added to each solution and the samples were incubated for 30 minutes. After incubation, 400 μl of 2% buffered paraformaldehyde was added for fixation. The samples were analyzed by a Becton Dickinson FACScan flow cytometer set up to measure fluorescent light scatter, as described in Gurbel P A, et al., J Am Coll Cardiol. 1998; 31: 1466-1473. The data were collected in list mode files and then analyzed. P selectin was expressed as percent positive cells as described in Gurbel P A, et al, Am Heart J 2000; 139: 320-328. Other antigens were expressed as log mean fluorescence intensity.

[4] = test system: platelet glycoprotein IIb/IIIa antigen (GPIIb, CD41); assay: Whole blood flow cytometry, GP IIb/IIIa antigen expression; type: cell-based, human; conditions: for Expression of platelet glycoprotein IIb/IIIa antigen (GPIIb, CD41): baseline 521.8 ± 98.2
Experimental: as §1, §2

[5] = test system: platelet vitronectin receptor (CD51/CD61); assay: Whole blood flow cytometry, vitronectin receptor expression; type: cell-based, human; conditions: for Expression of platelet vitronectin receptor (CD51/CD61): baseline 11.2 ± 4.6
Experimental: as §1, §2

P-selectin (CD 62p) = assay: Whole blood flow cytometry, P-selectin expression; type: cell-based, human; conditions: for Expression of P-selectin (CD 62p): baseline 9.1 ± 3.8
Experimental: as §1, §2

[6] = test system: lysosome associated membrane protein -2 (LAMP-2, CD107b); assay: Whole blood flow cytometry, LAMP-2 expression; type: cell-based, human; conditions: for Expression of lysosome associated membrane protein -2 (LAMP-2, CD107b): baseline 6.6 ± 2.1
Experimental: as §1, §2

[7] = test system: Glycoprotein IIb/IIIa activity (fibrinogen binding, PAC-1); assay: Whole blood flow cytometry, GP IIb/IIIa activity (PAC-1); type: cell-based, human; conditions: for Glycoprotein IIb/IIIa activity (fibrinogen binding, PAC-1): baseline 10.3 ± 2.8
Experimental: as §1, §2

CC(O)CCC(=O)N(Cc1ccc(-c2ccccc2-c2nnn[nH]2)cc1)[C@H](C(=O)O)C(C)C (stereo partly drawn) [Valeryl 4-hydroxy valsartan, (S)-2{(4-Hydroxy-pentanoyl)-[2′-(1H-tetrazol-5-yl)-biphenyl-4-ylmethyl]amino}-3-methyl-butyric Acid]
Effect on collagen-induced platelet aggregation in whole blood (in words) ([1]; 1 μM collagen as printed in text, within the range of therapeutic activity): inhibited aggregation | Whole blood impedance platelet aggregation induced by 1 μg/ml collagen ([1]; drug 10 nM): 32 ± 8 ohms | Whole blood impedance platelet aggregation induced by 1 μg/ml collagen ([1]; drug 100 nM): 31 ± 9 ohms | Whole blood impedance platelet aggregation induced by 1 μg/ml collagen ([1]; drug 1 μM): 14 ± 6 ohms | Whole blood impedance platelet aggregation induced by 1 μg/ml collagen ([1]; drug 10 μM): 16 ± 8 ohms | Whole blood impedance platelet aggregation induced by 1 μg/ml collagen ([1]; drug 100 μM): 17 ± 8 ohms | Antiplatelet properties compared with valsartan (in words) ([2]; cartridge-based analyzers (PFA-100 and Ultegra)): stronger antiplatelet properties than valsartan | PFA-100 closure time with the epinephrine/collagen cartridge ([2]; drug 10 nM): 179 ± 28 s | PFA-100 closure time with the epinephrine/collagen cartridge ([2]; drug 100 nM): 190 ± 24 s | PFA-100 closure time with the epinephrine/collagen cartridge ([2]; drug 1 μM): 259 ± 20 s | PFA-100 closure time with the epinephrine/collagen cartridge ([2]; drug 10 μM): 257 ± 25 s | PFA-100 closure time with the epinephrine/collagen cartridge ([2]; drug 100 μM): 232 ± 31 s | Expression of platelet/endothelial cell adhesion molecule-1 (PECAM-1, CD31) ([3]; drug 10 nM): 74.2 ± 13.4 log MFI | Expression of platelet/endothelial cell adhesion molecule-1 (PECAM-1, CD31) ([3]; drug 100 nM): 69.7 ± 15.1 log MFI | Expression of platelet/endothelial cell adhesion molecule-1 (PECAM-1, CD31) ([3]; drug 1 μM): 70.3 ± 16.4 log MFI | Expression of platelet/endothelial cell adhesion molecule-1 (PECAM-1, CD31) ([3]; drug 10 μM): 73.1 ± 9.3 log MFI | Expression of platelet/endothelial cell adhesion molecule-1 (PECAM-1, CD31) ([3]; drug 100 μM): 71.2 ± 15.5 log MFI | Effect on PECAM-1 (CD31) (in words) ([3]; whole blood flow cytometry): not associated with any effect | Expression of platelet glycoprotein IIb/IIIa antigen (GPIIb, CD41) ([4]; drug 10 nM): 505.6 ± 77.8 log MFI | Expression of platelet glycoprotein IIb/IIIa antigen (GPIIb, CD41) ([4]; drug 100 nM): 432.7 ± 116.8 log MFI | Expression of platelet glycoprotein IIb/IIIa antigen (GPIIb, CD41) ([4]; drug 1 μM): 427.2 ± 114.1 log MFI | Expression of platelet glycoprotein IIb/IIIa antigen (GPIIb, CD41) ([4]; drug 10 μM): 515.9 ± 156.2 log MFI | Expression of platelet glycoprotein IIb/IIIa antigen (GPIIb, CD41) ([4]; drug 100 μM): 529.3 ± 121.8 log MFI | Effect on expression of GP IIb/IIIa (CD 41) (in words) ([4]; whole blood flow cytometry): slightly reduced | Expression of platelet vitronectin receptor (CD51/CD61) ([5]; drug 10 nM): 12.1 ± 4.2 log MFI | Expression of platelet vitronectin receptor (CD51/CD61) ([5]; drug 100 nM): 8.5 ± 3.1 log MFI | Expression of platelet vitronectin receptor (CD51/CD61) ([5]; drug 1 μM): 8.1 ± 3.8 log MFI | Expression of platelet vitronectin receptor (CD51/CD61) ([5]; drug 10 μM): 7.2 ± 5.6 log MFI | Expression of platelet vitronectin receptor (CD51/CD61) ([5]; drug 100 μM): 7.6 ± 3.3 log MFI | Effect on expression of vitronectin receptors (in words) ([5]; whole blood flow cytometry): moderately reduced | Expression of P-selectin (CD 62p) (P-selectin (CD 62p); drug 10 nM): 9.3 ± 4.3 % of cell positivity | Expression of P-selectin (CD 62p) (P-selectin (CD 62p); drug 100 nM): 10.2 ± 5.4 % of cell positivity | Expression of P-selectin (CD 62p) (P-selectin (CD 62p); drug 1 μM): 7.3 ± 3.7 % of cell positivity | Expression of P-selectin (CD 62p) (P-selectin (CD 62p); drug 10 μM): 6.9 ± 4.2 % of cell positivity | Expression of P-selectin (CD 62p) (P-selectin (CD 62p); drug 100 μM): 8.9 ± 3.8 % of cell positivity | Effect on P-selectin on platelet surface (in words) (P-selectin (CD 62p); whole blood flow cytometry): significantly diminished | Expression of lysosome associated membrane protein -2 (LAMP-2, CD107b) ([6]; drug 10 nM): 7.7 ± 3.8 log MFI | Expression of lysosome associated membrane protein -2 (LAMP-2, CD107b) ([6]; drug 100 nM): 7.0 ± 3.0 log MFI | Expression of lysosome associated membrane protein -2 (LAMP-2, CD107b) ([6]; drug 1 μM): 6.6 ± 3.4 log MFI | Expression of lysosome associated membrane protein -2 (LAMP-2, CD107b) ([6]; drug 10 μM): 7.2 ± 3.9 log MFI | Expression of lysosome associated membrane protein -2 (LAMP-2, CD107b) ([6]; drug 100 μM): 7.1 ± 2.9 log MFI | Effect on LAMP-2 (CD107b) (in words) ([6]; whole blood flow cytometry): not associated with any effect | Glycoprotein IIb/IIIa activity (fibrinogen binding, PAC-1) ([7]; drug 10 nM): 11.0 ± 4.5 log MFI | Glycoprotein IIb/IIIa activity (fibrinogen binding, PAC-1) ([7]; drug 100 nM): 9.0 ± 3.3 log MFI | Glycoprotein IIb/IIIa activity (fibrinogen binding, PAC-1) ([7]; drug 1 μM): 6.7 ± 2.7 log MFI | Glycoprotein IIb/IIIa activity (fibrinogen binding, PAC-1) ([7]; drug 10 μM): 7.5 ± 3.1 log MFI | Glycoprotein IIb/IIIa activity (fibrinogen binding, PAC-1) ([7]; drug 100 μM): 9.9 ± 3.0 log MFI | Effect on fibrinogen binding (PAC-1) (in words) ([7]; whole blood flow cytometry): slightly reduced
